The source of these data is patent publication US20090191131A1, “USE OF PARTICULATE CONTRAST AGENTS IN DIAGNOSTIC IMAGING FOR STUDYING PHYSIOLOGICAL PARAMATERS” (priority 1998, published 2009).

Data set [1] in a line: Temperature sensitivity of in vitro T1 relaxivity (r1), 0.47 T. The class given is physicochemical. An excerpt: FIG. 1 of the accompanying drawings and Table 5 below show the temperature sensitivity of in vitro T1 relaxivity (r1) for liposome encapsulated GdDTPA-BMA and GdHPDO3A, respectively (0.47T).
The conditions of data set [2]: cited from earlier work.
The conditions of data set [3]: phosphatidylcholines; cited from earlier work.

Turning to `CC(O)CN1CCN(CC(=O)[O-])CCN(CC(=O)[O-])CCN(CC(=O)[O-])CC1.[Gd+3]` (stereo not shown) [Control, GdHPDO3A], the r1 in data set [1] (20 °C) is 4.53 s⁻¹ mM⁻¹; in data set [1] (25 °C), 4.27 s⁻¹ mM⁻¹; in data set [1] (30 °C), 3.94 s⁻¹ mM⁻¹; in data set [1] (37 °C), 3.75 s⁻¹ mM⁻¹; in data set [1] (45 °C), 3.07 s⁻¹ mM⁻¹; in data set [1] (55 °C) it was 2.82 s⁻¹ mM⁻¹. The r1 in data set [1] (60 °C) worked out at 2.54 s⁻¹ mM⁻¹. What is called pKa is the pH at which an ionisable group is half protonated. Take `CCCCCCCCCCCCOC(=O)C(C)n1ccnc1` (stereo not shown) [DIP]: the pKa in data set [2] is recorded as 6.8. The charged form result in data set [2] (lysosomal pH (5.2)) is “over 97%”. Moreover, in data set [2] (pH 7.3-7.4 (physiological)), the “non-ionized (non/low surfactant activity) form” value was 80%. Turning to `CCCCCCCCCCCCC(=O)OC[C@H](COP(=O)([O-])OCC[N+](C)(C)C)OC(=O)CCCCCCCCCCCC` [PC 13:0], the “Transition temperature Tc” value in data set [3] is 14 °C. As to `CCCCCCCCCCCCCCCC(=O)O[C@H](COC(=O)CCCCCCCCCCCCC)COP(=O)([O-])OCC[N+](C)(C)C` [PC 14:0-16:0], in data set [3], the “Transition temperature Tc” value was 35 °C.

As for `CCCCCCCCCCCCCCCCCC(=O)O[C@H](COC(=O)CCCCCCCCCCCCC)COP(=O)([O-])OCC[N+](C)(C)C` [PC 14:0-18:0], in data set [3], the “Transition temperature Tc” value was 40 °C. Consider `CCCCCCCCCCCCCCC(=O)OC[C@H](COP(=O)([O-])OCC[N+](C)(C)C)OC(=O)CCCCCCCCCCCCCC` [PC 15:0], for which the “Transition temperature Tc” value in data set [3] was 33 °C.

In the case of `CCCCCCCCCCCCCCCCCC(=O)O[C@H](COC(=O)CCCCCCCCCCCCCCC)COP(=O)([O-])OCC[N+](C)(C)C` [PC 16:0-18:0], the “Transition temperature Tc” value in data set [3] is 49 °C. Regarding `CCCCCCCCCCCCCCCCC(=O)OC[C@H](COP(=O)([O-])OCC[N+](C)(C)C)OC(=O)CCCCCCCCCCCCCCCC` [PC 17:0], in data set [3], the “Transition temperature Tc” value is 48 °C. Consider `CCCCCCCCCCCCCCCCCC(=O)OC[C@H](COP(=O)([O-])OCC[N+](C)(C)C)OC(=O)CCCCCCCCCCCCCCC` [PC 18:0-16:0], for which, in data set [3], the “Transition temperature Tc” value is 44 °C. For the compound `CCCCCCCCCCC/C=C\CCCCC(=O)OC[C@H](COP(=O)([O-])OCC[N+](C)(C)C)OC(=O)CCCC/C=C\CCCCCCCCCCC` [PC 18:1c6], the “Transition temperature Tc” value in data set [3] was 1 °C. For the compound `CCCCCCCC/C=C\CCCCCCCC(=O)OC[C@H](COP(=O)([O-])OCC[N+](C)(C)C)OC(=O)CCCCCCC/C=C\CCCCCCCC` [PC 18:1c9], the “Transition temperature Tc” value in data set [3] is −20 °C.

On to `CCCCCCCC/C=C/CCCCCCCC(=O)OC[C@H](COP(=O)([O-])OCC[N+](C)(C)C)OC(=O)CCCCCCC/C=C/CCCCCCCC` [PC 18:1t9], for which, in data set [3], the “Transition temperature Tc” value was 12 °C. For the compound `CCCCCCCCCCCCCCCCCCCC(=O)OC[C@H](COP(=O)([O-])OCC[N+](C)(C)C)OC(=O)CCCCCCCCCCCCCCCCCCC` [PC 20:0], in data set [3], the “Transition temperature Tc” value is 66 °C. For `CCCCCCCCCCCCCCCCCCCCC(=O)OC[C@H](COP(=O)([O-])OCC[N+](C)(C)C)OC(=O)CCCCCCCCCCCCCCCCCCCC` [PC 21:0], the “Transition temperature Tc” value in data set [3] is 72 °C.

As for `CCCCCCCCCCCCCCCCCCCCCC(=O)OCC(COP(=O)([O-])OCC[N+](C)(C)C)OC(=O)CCCCCCCCCCCCCCCCCCCCC` (stereo not shown) [PC 22:0, Dibehenoyl-PC], in data set [3], the “Transition temperature Tc” value is 75 °C. As for `CCCCCCCCCCCCCCCCCCCCCCC(=O)OC[C@H](COP(=O)([O-])OCC[N+](C)(C)C)OC(=O)CCCCCCCCCCCCCCCCCCCCCC` [PC 23:0], the “Transition temperature Tc” value in data set [3] is 79 °C. For the compound `CCCCCCCCCCCCCCCCCCCCCCCC(=O)OC[C@H](COP(=O)([O-])OCC[N+](C)(C)C)OC(=O)CCCCCCCCCCCCCCCCCCCCCCC` [PC 24:0], in data set [3], the “Transition temperature Tc” value is 80 °C.
